Source: ChEMBL document CHEMBL3045635, “Synthesis and in vitro antimicrobial evaluation of novel 2-amino-6-(phenylthio)-4-(2-(phenylthio)quinolin-3-yl)pyridine-3,5-dicarbonitriles” (2013)
Values after ≈ are worked out from the molar mass of the structure shown.

How the values were obtained:
Assay type in all cases: functional
[1] = system: Aspergillus fumigatus; experiment: Antifungal activity against Aspergillus fumigatus MTCC 3008 after 48 hr by broth microdilution method
[2] = system: Bacillus subtilis; experiment: Antibacterial activity against Bacillus subtilis MTCC 441 after 24 hr by broth microdilution method; conditions: MTCC 441, 24 h
[3] = system: Candida albicans; experiment: Antifungal activity against Candida albicans MTCC 227 after 48 hr by broth microdilution method
[4] = system: Vibrio cholerae; experiment: Antibacterial activity against Vibrio cholerae MTCC 3906 after 24 hr by broth microdilution method; conditions: MTCC 3906, 24 h
[5] = system: Clostridium tetani; experiment: Antibacterial activity against Clostridium tetani MTCC 449 after 24 hr by broth microdilution method; conditions: MTCC 449, 24 h
[6] = system: Salmonella typhi; experiment: Antibacterial activity against Salmonella enterica subsp. enterica serovar Typhi MTCC 98 after 24 hr by broth microdilution method; conditions: MTCC 98, 24 h
[7] = system: Streptococcus pneumoniae; experiment: Antibacterial activity against Streptococcus pneumoniae MTCC 1936 after 24 hr by broth microdilution method; conditions: MTCC 1936, 24 h
[8] = system: Escherichia coli; experiment: Antibacterial activity against Escherichia coli MTCC 443 after 24 hr by broth microdilution method; conditions: MTCC 443, 24 h

| Molecule | MIC ([1]; MTCC 3008, 48 h) [µg/mL] | MIC [2] [µg/mL] | MIC ([3]; MTCC 227, 48 h) [µg/mL] | MIC [4] [µg/mL] | MIC [5] [µg/mL] | MIC [6] [µg/mL] | MIC [7] [µg/mL] | MIC [8] [µg/mL] | MIC [1] [µg/mL] | MIC [3] [µg/mL] |
| --- | --- | --- | --- | --- | --- | --- | --- | --- | --- | --- |
| Cc1ccc(Sc2nc3ccc(C)cc3cc2-c2c(C#N)c(N)nc(Sc3ccccc3)c2C#N)cc1 | 500 (≈ 970 µM) | 250 (≈ 485 µM) | > 1000 | 250 (≈ 485 µM) | 500 (≈ 970 µM) | 200 (≈ 388 µM) | 250 (≈ 485 µM) | 100 (≈ 194 µM) |  |  |
| Cc1ccc2nc(Sc3ccccc3)c(-c3c(C#N)c(N)nc(Sc4ccccc4)c3C#N)cc2c1 | 250 (≈ 498 µM) | 250 (≈ 498 µM) | 1000 (≈ 1990 µM) | 250 (≈ 498 µM) | 250 (≈ 498 µM) | 200 (≈ 399 µM) | 250 (≈ 498 µM) | 200 (≈ 399 µM) |  |  |
| Cc1ccc(Sc2nc3ccccc3cc2C=O)cc1 | 200 (≈ 716 µM) | 250 (≈ 895 µM) | 1000 (≈ 3580 µM) | 250 (≈ 895 µM) | 250 (≈ 895 µM) | 250 (≈ 895 µM) | 250 (≈ 895 µM) | 200 (≈ 716 µM) |  |  |
| N#Cc1c(N)nc(Sc2ccccc2)c(C#N)c1-c1cc2ccccc2nc1Sc1ccccc1 | 500 (≈ 1030 µM) | 500 (≈ 1030 µM) | 250 (≈ 513 µM) | 200 (≈ 410 µM) | 500 (≈ 1030 µM) | 200 (≈ 410 µM) | 500 (≈ 1030 µM) | 250 (≈ 513 µM) |  |  |
| Cc1ccc2nc(Sc3ccccc3)c(-c3c(C#N)c(N)nc(Sc4ccc(Cl)cc4)c3C#N)cc2c1 | 250 (≈ 466 µM) | 500 (≈ 933 µM) | > 1000 | 200 (≈ 373 µM) | 200 (≈ 373 µM) | 100 (≈ 187 µM) | 500 (≈ 933 µM) | 50 (≈ 93.3 µM) |  |  |
| Cc1ccc(Sc2nc(N)c(C#N)c(-c3cc4cc(C)ccc4nc3Sc3ccc(Cl)cc3)c2C#N)cc1 | 250 (≈ 454 µM) | 100 (≈ 182 µM) | > 1000 | 250 (≈ 454 µM) | 250 (≈ 454 µM) | 200 (≈ 364 µM) | 100 (≈ 182 µM) | 200 (≈ 364 µM) |  |  |
| Cc1ccc(Sc2nc(N)c(C#N)c(-c3cc4cc(C)ccc4nc3Sc3ccccc3)c2C#N)cc1 | 500 (≈ 970 µM) | 500 (≈ 970 µM) | 1000 (≈ 1940 µM) | 500 (≈ 970 µM) | 200 (≈ 388 µM) | 100 (≈ 194 µM) | 250 (≈ 485 µM) | 250 (≈ 485 µM) |  |  |
| COC1=CC(=O)C[C@@H](C)[C@]12Oc1c(Cl)c(OC)cc(OC)c1C2=O [GRISEOFULVIN] | 100 (≈ 283 µM) |  | 500 (≈ 1420 µM) |  |  |  |  |  |  |  |
| Cc1ccc(Sc2nc3ccccc3cc2-c2c(C#N)c(N)nc(Sc3ccccc3)c2C#N)cc1 | > 1000 | 250 (≈ 498 µM) | 500 (≈ 997 µM) | 200 (≈ 399 µM) | 200 (≈ 399 µM) | 125 (≈ 249 µM) | 250 (≈ 498 µM) | 200 (≈ 399 µM) |  |  |
| Cc1ccc2nc(Sc3ccccc3)c(C=O)cc2c1 | > 1000 | 500 (≈ 1790 µM) | > 1000 | 250 (≈ 895 µM) | 250 (≈ 895 µM) | 200 (≈ 716 µM) | 500 (≈ 1790 µM) | 200 (≈ 716 µM) |  |  |
| Cc1ccc2nc(Sc3ccc(Cl)cc3)c(C=O)cc2c1 | 1000 (≈ 3190 µM) | 500 (≈ 1590 µM) | 200 (≈ 637 µM) | 100 (≈ 319 µM) | 500 (≈ 1590 µM) | 125 (≈ 398 µM) | 500 (≈ 1590 µM) | 100 (≈ 319 µM) |  |  |
| O=C(O)c1cn(C2CC2)c2cc(N3CCNCC3)c(F)cc2c1=O [CIPROFLOXACIN] |  |  |  | 25 (≈ 75.4 µM) |  | 25 (≈ 75.4 µM) | 50 (≈ 151 µM) | 25 (≈ 75.4 µM) |  |  |
| O=Cc1cc2ccccc2nc1Sc1ccccc1 | 1000 (≈ 3770 µM) | 200 (≈ 754 µM) | 250 (≈ 942 µM) | 200 (≈ 754 µM) | 250 (≈ 942 µM) | 250 (≈ 942 µM) | 200 (≈ 754 µM) | 200 (≈ 754 µM) |  |  |
| Cc1ccc(Sc2nc3ccc(C)cc3cc2-c2c(C#N)c(N)nc(Sc3ccc(C)cc3)c2C#N)cc1 | 1000 (≈ 1890 µM) | 100 (≈ 189 µM) | 250 (≈ 472 µM) | 250 (≈ 472 µM) | 250 (≈ 472 µM) | 125 (≈ 236 µM) | 200 (≈ 378 µM) | 200 (≈ 378 µM) |  |  |
| NYSTATIN |  |  |  |  |  |  |  |  | 100 | 100 |
